Laboratory results published in US9238659B2, “Method of using binuclear gold (I) compounds for cancer treatment” (University of Hong Kong, priority 2012, dated 2016).

Tests used:
[1] = system: H1975; test: MTT cytotoxicity assay, H1975; type: cell-based, human; details: 72 h of incubation
[2] = system: human nasopharyngeal carcinoma (HONE1); test: MTT cytotoxicity assay, HONE1; type: cell-based; details: 72 h of incubation
[3] = system: lung carcinoma (HCC827); test: MTT cytotoxicity assay, HCC827; type: cell-based, human; details: 72 h of incubation
[4] = system: human nasopharyngeal carcinoma (SUNE1); test: MTT cytotoxicity assay, SUNE1; type: cell-based; details: 72 h of incubation
[5] = system: cervical epithelioid carcinoma (HeLa); test: MTT cytotoxicity assay, HeLa; type: cell-based, human; details: 72 h of incubation
[6] = system: breast carcinoma (MCF-7); test: MTT cytotoxicity assay, MCF-7; type: cell-based, human; details: 72 h of incubation
[7] = system: hepatocellular carcinoma (HepG2); test: MTT cytotoxicity assay, HepG2; type: cell-based, human; details: 72 h of incubation
[8] = Reactivity towards physiological thiols (ESI-MS monitoring of reaction with GSH); type: physicochemical; details: GSH […]10^−5M or 5×10^−5M, about 45 min
Description: FIGS. 6A-C show stability tests: (A) UV/vis absorption of 1 in PBS (containing 5% acetonitrile, v/v) at different time point; (B) Linear response of ESI-MS intensity of 1 versus concentration; (C) Kinetics analysis of reaction of 1 with GSH, auranofin was used as a reference compound. Unreacted compound percentage was calculated by combined MS intensity of each 10 scans at different time point then divided by pre-determined MS intensity of initial concentration. It was believed that high reactivity of the gold(I) anticancer drugs towards physiological thiols may fail the drugs targeting to the solid tumor tissue thus hamper the application for in vivo cancer treatment. As a result, high resolution ESI-MS was applied to monitor the reaction of 1 with thiol-containing GSH.

SMILES: CCN(CC)C1=[S+][Au-][P+](c2ccccc2)(c2ccccc2)C[P+](c2ccccc2)(c2ccccc2)[Au-][S]1.O=S(=O)(O)C(F)(F)F [Compound 4, [Au2-dppm-dedt] (OTf)]
- IC50 [1]: < 190 nM
- IC50 [2]: 590 ± 40 nM
- IC50 [3]: 480 ± 60 nM
- IC50 [4]: 1620 ± 440 nM
- IC50 [5]: 630 nM
- IC50 [6]: 500 ± 60 nM
- IC50 [7]: 950 ± 580 nM

SMILES: CCN(CC)C1=[S+][Au-][P+](C2CCCCC2)(C2CCCCC2)C[P+](C2CCCCC2)(C2CCCCC2)[Au-][S]1.O=S(=O)(O)C(F)(F)F [Compound 3, [Au2-dcpm-dedt] (OTf)]
- IC50 [2]: 410 ± 70 nM
- IC50 [4]: 670 ± 280 nM
- IC50 [5]: < 390 nM
- IC50 [6]: 410 ± 200 nM
- IC50 [7]: 540 ± 70 nM

SMILES: CC(=O)OC[C@H]1O[C@@H]([S-])[C@H](OC(C)=O)[C@@H](OC(C)=O)[C@@H]1OC(C)=O.CCP(CC)CC.[Au+] [auranofin, reference compound]
- reaction towards GSH (reference compound) [8]: fast reaction towards GSH
